Experimental data taken from EP0082385A1, “1-(3-Nitrophenyl)pyrido(2,3-d)pyrimidine-2,4(1H,3H) diones and 1-(3-nitrophenyl)quinazoline-2-4(1H,3H)diones as cutaneous medicaments” (Troponwerke GmbH & Co. KG, priority 1981, dated 1983).
Where two headings read alike, the source gives them in different places.

What was measured:
[1] = system: durch Kaolin induzierten Ödems der Rattenpfote; assay: Kaolin-induced rat paw oedema, substance applied to shorn back skin or given p.o.; format: in vivo, Ratte; settings: for ED50: 5 h
[2] = system: emetische Erscheinungen beim Hund; settings: dog, in vivo
Experimental: Die Vermeidung der Nebenwirkungen durch cutane Applikation von Verb. 1 ist nachfolgend beispielhaft für Verb. 1 beschrieben. • 1. Sowohl nach oraler als auch intramuskulärer Applikation von Verb. 1 treten bereits ab einer Dosis von etwa 0.1 mg/kg beim Hund starke emetische Erscheinungen auf. Diese emetische Wirkung beim Hund bleibt auch nach cutaner Applikation von 5 mg/kg der Substanz aus. • 2. Verb. […] Verb.

Tachyphylaxie bei Ratten = assay: Tachyphylaxis (loss of oedema-inhibiting effect) after repeated dosing in rats; format: in vivo
[3] = system: Carrageenan-Pfotenödems der Ratte; assay: Carrageenan rat paw oedema, preparations of TVX; format: in vivo
Excerpt: Aufbereitung von TVX - Hemmung des Carrageenan-Pfotenödems der Ratte

[4] = 0,3 mg/kg cutan, in Dimethylsulfoxid, rat, 5 h after oedema provocation
[5] = po, p.o., rat, read-out: DE50 (mg/kg) Kaolin-ödem p.o.

COC(=O)c1ccccc1O [Salicyclsäuremethylester, Salicylsäuremethylester, reference compound]
% Hemmung des Kaolin-ödems ([1]; solvent alone (without Verb. 1), cutan, rat): 39.4) %

CCn1c(=O)c2ccccc2n(-c2cccc([N+](=O)[O-])c2)c1=O [Verb. 1, 1-(3-Nitrophenyl)-3-ethylchinazolin-2.4(1H, 3H)-dion]
% Hemmung des Kaolin-ödems ([1]; 0,3 mg/kg cutan, in Cremophor, rat, n = 5): 14.2%
% Hemmung des Kaolin-ödems ([1]; 0,3 mg/kg cutan, in Dimethylacetamid, rat, n = 5): 50.5%
% Hemmung des Kaolin-ödems ([1]; 0,3 mg/kg cutan, in Dimethylformamid, rat, n = 5): 35.0%
% Hemmung des Kaolin-ödems [1, 4]: 48.3%
% Hemmung des Kaolin-ödems ([1]; 0,3 mg/kg cutan, in Erdnußöl, rat, n = 5): 16.7%
% Hemmung des Kaolin-ödems ([1]; 0,3 mg/kg cutan, in Lutrol, rat, n = 5): 18.3%
% Hemmung des Kaolin-ödems ([1]; 0,3 mg/kg cutan, in N-Methylpyrrolidon, rat, n = 5): 63.2%
% Hemmung des Kaolin-ödems ([1]; 0,3 mg/kg cutan, in Ricinusöl, rat, n = 5): 14.2%
% Hemmung des Kaolin-ödems ([1]; 0,3 mg/kg cutan, in Salicylsäuremethylester, rat, n = 5): 77.1%
ED50 ([1]; Rattus norvegicus, topical, cutan in Dimethylsulfoxid, same antiphlogistic effect as 0,3 mg/kg oral, read-out: DE50 nach cutaner Applikation in Dimethylsulfoxid): 0.3 mg/kg
ED50 [1, 5]: 0.3 mg/kg
Dosis, ab der emetische Wirkung auftritt [2]: > 5 mg/kg
Dosis, ab der starke emetische Erscheinungen auftreten [2]: ~0.1 mg/kg
ödemhemmende Wirkung nach topischer Vorbehandlung (Tachyphylaxie bei Ratten; 6 days topical pretreatment, in Dimethylsulfoxid, 0.3 mg/kg/Tag): eindeutige ödemhemmende Wirkung
Wirkungsverlust (Tachyphylaxie) (Tachyphylaxie bei Ratten; cutaneous application): vollständig vermieden
Tachyphylaxie (Tachyphylaxie bei Ratten; oral doses over several days, seen after three to four days): deutliche Tachyphylaxie
% Hemmung ([3]; preparation: TVX 0.03, Aceton 6.97, IPM 3.00 (total 10.00)): 51.3%
% Hemmung ([3]; preparation: TVX 0.03, Aceton 9.97 (total 10.00)): 41.7%
% Hemmung ([3]; preparation: TVX 0.03, Essigsäureethylester 6.97, IPM 3.00 (total 10.00)): 64.1%
% Hemmung ([3]; preparation: TVX 0.03, Essigsäureethylester 9.97 (total 10.00)): 31.0%
% Hemmung ([3]; preparation: TVX 0.03, IPM 3.00, Tween 2.00, Isopropanol 4.97 (total 10.00)): 55.1%
% Hemmung ([3]; preparation: TVX 0.03, Milchsäureethylester 6.97, IPM 3.00 (total 10.00)): 50.6%
% Hemmung ([3]; preparation: TVX 0.03, Milchsäureethylester 9.97 (total 10.00)): 42.0%
% Hemmung ([3]; preparation: TVX 0.03, Tween 0.50, Dowanol DPM 9.47 (total 10.00)): 62.7%

O=c1c2ccccc2n(-c2cccc([N+](=O)[O-])c2)c(=O)n1CCF [Verb. 2, 1-(3-Nitrophenyl)-3-(2-fluorethyl)-chinazolin-2,4(1H, 3H)dion]
% Hemmung des Kaolin-ödems [1, 4]: 56.0%
ED50 [1, 5]: 0.2 mg/kg

CCn1c(=O)c2cccnc2n(-c2cccc([N+](=O)[O-])c2)c1=O [Verb. 3, 1-(3-Nitrophenyl)-3-ethylpyridoL2.3-d/pyrimidin-2,4(1H, 3H)dion]
% Hemmung des Kaolin-ödems [1, 4]: 79.8%
ED50 [1, 5]: 0.1 mg/kg
